Reference: patent US8268867B2, “1,3-dioxane carboxylic acids” (Cadila Healthcare Limited, priority 2006, dated 2012)
Counter-ions that a name gives are not always drawn.

Legend:
Swiss albino mice = assay: Serum triglyceride lowering activity in Swiss albino mice; type: in vivo; details: Mus musculus, po, 144 h; male Swiss albino mice, 10 mg/kg/day orally for 6 days, serum 1 hour after dosing on 6th day
Method: Male Swiss albino mice (SAM) were bred in Zydus animal house. All these animals were maintained under 12 hour light and dark cycle at 25±1° C. Animals were given standard laboratory chow (NIN, Hyderabad, India) and water ad libitum. SAM of 20-30 g body weight range was used. The protocol approved by Institutional Animal Ethics Committee is being used.
The test compounds were administered orally to Swiss albino mice at 0.001 to 50 mg/kg/day dose for 6 days. The compound was administered after suspending it in 0.25% CMC or dissolving it in water, when compound is water-soluble. Control mice were treated with vehicle (0.25% of Carboxymethyl cellulose; dose 10 ml/kg).
The blood samples were collected on 0th day and in fed state 1 hour after drug administration on 6th day of the treatment. The blood was collected in non heparinised capillary and the serum was analyzed for triglyceride (Wieland, O. Methods of Enzymatic analysis. Bergermeyer, H., O., Ed., 1963. 211-214; Trinder, P. Ann. Clin. Biochem. 1969. 6: 24-27). Measurement of serum triglyceride was done using commercial kits (Zydus-Cadila, Pathline, Ahmedabad, India).
Percentage Reduction in Triglycerides was Calculated According to the Formula: […]

C57BL/KsJ-db/db mice = assay: Serum glucose and triglycerides lowering activity in db/db mice; type: in vivo; details: male db/db mice, 3 mg/kg/day oral gavage for 6 days, 1 hour after dosing on 6th day
Method: Homozygous animal C57BL/KsJ-db/db mice are obese, hyperglycemic, hyperinsulinemic and insulin resistant (J. Clin. Invest, 85, 962-967, 1990), whereas heterozygous are lean and normoglycemic. The homozygous animals very closely mimic the human type H diabetes when blood sugar levels are not sufficiently controlled. Since this type of model resembles human type II diabetes mellitus, the compounds of the invention were tested for their antidiabetic activity in this model.
Male C57BL/KsJ-db/db mice of 8 to 14 weeks age, having body weight range of 40 to 60 grams, procured from the Jackson Laboratory, USA, were used in the experiment.
Test compounds were suspended on 0.25% carboxymethyl cellulose or dissolved in water when the compound is water soluble and administered to test group containing 6 animals at a dose of 0.001 mg to 50 mg/kg through oral gavage daily for 6 days. The control group received vehicle (dose 10 ml/kg). On the 6th day, one hour after the drug dosing, blood was collected from retro-orbital sinus and the serum was analyzed for glucose and triglycerides were measured using commercial kits (Zydus-Cadila, Pathline, Ahmedabad, India). The serum glucose and triglyceride lowering activities of the test compound was calculated according of the formula: […]

Row | melting point | SMILES | inhibition in vivo at 10 mg/kg/day (Swiss albino mice) | Plasma TG reduction (%) (C57BL/KsJ-db/db mice) | Serum Glucose reduction (%) (C57BL/KsJ-db/db mice)
1 |  | COc1ccc(C(C)=NOCCCCC2COC(C)(C(=O)O)OC2)cc1 (centres unmarked) [Example 66, 5-{4-[1-(4-Methoxy-phenyl)-ethylideneaminooxy]-butyl}-2-methyl-[1,3]dioxane-2-carboxylic Acid] | 50% | 45% | 27%
2 |  | CC(=NOCCCCC1COC(C)(C(=O)O)OC1)c1ccc2c(c1)OCO2 (centres unmarked) [Example 69, 5-[4-(1-Benzo[1,3]dioxol-5-yl-ethylideneaminooxy)-butyl]-2-methyl-[1,3]dioxane-2-carboxylic acid] | 61% |  | 
3 |  | CCC(=NOCCCCC1COC(C)(C(=O)O)OC1)c1ccc(OC)cc1 (centres unmarked) [Example 77, 5-{4-[1-(4-Methoxy-phenyl)-propylideneaminooxy]-butyl}-2-methyl-[1,3]dioxane-2-carboxylic Acid] | 39% |  | 
4 |  | COc1ccc(C(C)=NOCCCCC2COC(C)(C(=O)O)OC2)cc1OC (centres unmarked) [Example 59, 5-{4-[1-(3,4-Dimethoxy-phenyl)-ethylideneaminooxy]-butyl}-2-methyl-[1,3]dioxane-2-carboxylic Acid] | 22% |  | 
5 |  | CC(=NOCCCCC1COC(C)(C(=O)O)OC1)c1ccc(-c2ccccc2)cc1 (centres unmarked) [Example 70, 5-[4-(1-Biphenyl-4-yl-ethylideneaminooxy)-butyl]-2-methyl-[1,3]dioxane-2-carboxylic Acid] | 49% | 52% | 26%
6 |  | COc1ccc(C(C)=NOCCCCC2COC(C)(C(=O)O)OC2)cc1F (centres unmarked) [Example 61, 5-{4-[1-(3-Fluoro-4-methoxy-phenyl)-ethylideneaminooxy]-butyl}-2-methyl-[1,3]dioxane-2-carboxylic Acid] | 44% |  | 
7 |  | CC(=NOCCCCC1COC(C)(C(=O)O)OC1)c1ccc(OS(C)(=O)=O)cc1 (centres unmarked) [Example 67, 5-{4-[1-(4-Methanesulfonyloxy-phenyl)-ethylideneaminooxy]-butyl}-2-methyl-[1,3]dioxane-2-carboxylic Acid] | 75% | 48% | 12%
8 |  | CC(=NOCCCCC1COC(C)(C(=O)O)OC1)c1ccc(C(F)(F)F)cc1 (centres unmarked) [Example 44, 2-Methyl-5-{4-[1-(4-trifluoromethyl-phenyl)-ethylideneaminooxy]-butyl}-[1,3]dioxane-2-carboxylic Acid] | 40% |  | 
9 |  | CC(=NOCCCCC1COC(C)(C(=O)O)OC1)c1ccc(C)cc1 (centres unmarked) [Example 48, 2-Methyl-5-[4-(1-p-tolyl-ethylideneaminooxy)-butyl]-[1,3]dioxane-2-carboxylic Acid] | 64% | 44% | 14%
10 |  | CCOc1ccc(C(C)=NOCCCCC2COC(C)(C(=O)O)OC2)cc1 (centres unmarked) [Example 55, 5-{4-[1-(4-Ethoxy-phenyl)-ethylideneaminooxy]-butyl}-2-methyl-[1,3]dioxane-2-carboxylic Acid] | 46% |  | 
11 |  | CC(=NOCCCCC1COC(C)(C(=O)O)OC1)c1ccc(Cl)cc1 (centres unmarked) [Example 46, 5-{4-[1-(4-Chloro-phenyl)-ethylideneaminooxy]-butyl}-2-methyl-[1,3]dioxane-2-carboxylic Acid] | 39% |  | 
12 |  | CCC(=NOCCCCC1COC(C)(C(=O)O)OC1)c1ccc(C)cc1 (centres unmarked) [Example 78, 2-Methyl-5-[4-(1-p-tolyl-propylideneaminooxy)-butyl]-[1,3]dioxane-2-carboxylic Acid] | 42% |  | 
13 |  | CC(=NOCCCCC1COC(C)(C(=O)O)OC1)c1cccs1 (centres unmarked) [Example 68, 2-Methyl-5-[4-(1-thiophen-2-yl-ethylideneaminooxy)-butyl]-[1,3]dioxane-2-carboxylic Acid] | 33% |  | 
14 |  | CC(=NOCCCCC1COC(C)(C(=O)O)OC1)c1ccc2c(c1)CCCC2 (centres unmarked) [Example 64, 2-Methyl-5-{4-[1-(5,6,7,8-tetrahydro-naphthalen-2-yl)-ethylideneaminooxy]-butyl}-[1,3]dioxane-2-carboxylic Acid] | 85% | 46% | 31%
15 | 240 °C | CC(=NOCCCCC1COC(C)(C(=O)O)OC1)c1ccc2ccccc2c1 (centres unmarked) (as salt: sodium) [Example 84, Sodium Salt of 2-Methyl-5-[4-(1-naphthalen-2-yl-ethylideneaminooxy)-butyl]-[1,3]dioxane-2-carboxylic Acid] |  |  | 
16 |  | COc1ccc(C(C)=NOCCCCC2COC(C)(C(=O)O)OC2)cc1C (centres unmarked) [Example 57, 5-{4-[1-(4-Methoxy-3-methyl-phenyl)-ethylideneaminooxy]-butyl}-2-methyl-[1,3]dioxane-2-carboxylic Acid] | 43% |  | 
17 |  | CC(=NOCCCCC1COC(C)(C(=O)O)OC1)c1ccc2ccccc2c1 (centres unmarked) [Example 63, 2-Methyl-5-[4-(1-naphthalen-2-yl-ethylideneaminooxy)-butyl]-[1,3]dioxane-2-carboxylic Acid] | 84% | 59% | 41%
18 |  | CC(=NOCCCCCC1COC(C)(C(=O)O)OC1)c1ccc2ccccc2c1 (centres unmarked) [Example 62, 2-Methyl-5-[5-(1-naphthalen-2-yl-ethylideneaminooxy)-pentyl]-[1,3]dioxane-2-carboxylic Acid] | 69% |  | 
19 |  | CC(=NOCCCCC1COC(C)(C(=O)O)OC1)c1ccc(CC(C)C)cc1 (centres unmarked) [Example 60, 5-{4-[1-(4-Isobutyl-phenyl)-ethylideneaminooxy]-butyl}-2-methyl-[1,3]dioxane-2-carboxylic Acid] | 62% |  | 
20 |  | CCc1ccc(C(C)=NOCCCCC2COC(C)(C(=O)O)OC2)cc1 (centres unmarked) [Example 52, 5-{4-[1-(4-Ethyl-phenyl)-ethylideneaminooxy]-butyl}-2-methyl-[1,3]dioxane-2-carboxylic Acid] | 36% |  | 
21 |  | CC(=NOCCCCC1COC(C)(C(=O)O)OC1)c1ccc(F)c(Cl)c1 (centres unmarked) [Example 49, 5-{4-[1-(3-Chloro-4-fluoro-phenyl)-ethylideneaminooxy]-butyl}-2-methyl-[1,3]dioxane-2-carboxylic Acid] | 51% |  | 
22 |  | CCCCCCCCOC(=O)C1(C)OCC(CCCCON=C(C)c2ccc3ccccc3c2)CO1 (centres unmarked) [Example 83, Octyl-2-methyl-5-[4-(1-naphthalen-2-yl-ethylideneaminooxy)-butyl]-[1,3]dioxane-2-carboxylate] | 61% |  | 
23 |  | CC(=NOCCCCC1COC(C)(C(=O)O)OC1)c1cccc(C)c1 (centres unmarked) [Example 76, 2-Methyl-5-[4-(1-m-tolyl-ethylideneaminooxy)-butyl]-[1,3]dioxane-2-carboxylic Acid] | 67% |  | 
